Target: T1, zebrafish TRPA1b (zTRPA1b) (Danio rerio, UniProt A0A8M1N2Z4)
T1 sequence (A0A8M1N2Z4 1-1120): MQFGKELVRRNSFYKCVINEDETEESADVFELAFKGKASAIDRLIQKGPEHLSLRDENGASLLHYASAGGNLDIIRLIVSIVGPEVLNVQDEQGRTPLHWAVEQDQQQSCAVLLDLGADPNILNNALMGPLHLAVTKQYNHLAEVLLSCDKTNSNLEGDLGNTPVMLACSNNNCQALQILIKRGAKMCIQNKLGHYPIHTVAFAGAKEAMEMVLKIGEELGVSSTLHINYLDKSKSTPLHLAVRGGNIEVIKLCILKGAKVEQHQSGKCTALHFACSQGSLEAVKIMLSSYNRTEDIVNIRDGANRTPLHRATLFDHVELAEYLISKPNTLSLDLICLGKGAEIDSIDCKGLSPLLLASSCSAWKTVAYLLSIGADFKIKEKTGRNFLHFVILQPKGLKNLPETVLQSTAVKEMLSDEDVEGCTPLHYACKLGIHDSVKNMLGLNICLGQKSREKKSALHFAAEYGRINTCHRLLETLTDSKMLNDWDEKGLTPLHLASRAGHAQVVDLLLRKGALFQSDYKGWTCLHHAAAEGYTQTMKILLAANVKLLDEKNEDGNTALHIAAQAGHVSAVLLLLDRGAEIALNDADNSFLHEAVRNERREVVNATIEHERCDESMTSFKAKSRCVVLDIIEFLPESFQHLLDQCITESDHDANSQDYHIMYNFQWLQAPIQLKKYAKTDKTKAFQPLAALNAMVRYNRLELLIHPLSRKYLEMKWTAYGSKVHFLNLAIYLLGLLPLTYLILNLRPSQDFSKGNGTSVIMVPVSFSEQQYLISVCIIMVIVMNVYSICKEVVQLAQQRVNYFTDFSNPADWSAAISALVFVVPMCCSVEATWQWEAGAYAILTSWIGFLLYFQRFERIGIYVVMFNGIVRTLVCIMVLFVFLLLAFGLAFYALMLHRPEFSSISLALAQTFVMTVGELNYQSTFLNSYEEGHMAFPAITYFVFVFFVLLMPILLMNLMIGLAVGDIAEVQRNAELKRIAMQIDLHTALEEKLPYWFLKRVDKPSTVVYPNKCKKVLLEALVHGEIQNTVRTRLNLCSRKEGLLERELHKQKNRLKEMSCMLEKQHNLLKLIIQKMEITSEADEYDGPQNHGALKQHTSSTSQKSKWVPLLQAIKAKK
Test: FLIPR calcium signaling assay in zTRPA1b-transfected HEK293 cells
Assay type: cell-based
Conditions: for EC50: agonist calcium influx, zTRPA1b-transfected HEK293, read-out: EC50 (potency in µM)
Description: The cells were maintained in a 37 °C incubator with consistent 5% CO2. […] Experiments were carried out with the approval of the Institutional Biohazard Committee (#13-013-16).
Twenty-five µl calcium sensitive Fluorescent Imaging Plate Reader (FLIPR) Calcium 6 assay dye (#R8190, Molecular Devices, CA, USA) was added to each well of a 384-well plate containing HEK293 cells transiently expressing mTRPA1, zTRPA1a, and zTRPA1b, respectively. The cells were incubated for an hour prior to the recording of intracellular calcium levels in a FlexStation3 Multi-Mode Microplate Reader (#R8190, Molecular Devices) as previously described. […] During the assay, the cells were challenged by a 5x ASP7663 solution or 1% DMSO solution at the 20 seconds time point, and both solutions were diluted in calcium buffer. Relative fluorescence units (RFU) were measured for 120 seconds period by the Flexstation. […] For each specific antagonist concentration we plotted Log(dose ratio-1) against the antagonist concentration in a Schild plot. The dose ratio (A’/A) equals the EC50 of the agonist (ASP7665) in the presence of a concentration of the antagonist (A’) divided by the EC50 of the agonist in the absence of antagonist (A). The x-intercept of the Schild plot was used to identify the antagonist-receptor affinity (pA2).
All data are presented as means ± standard error of the mean (SEM). For our in vitro statistical analysis, AUC of calcium influx (RFU) was measured to plot dose-response curves, which were further analyzed by nonlinear regression analysis. Mean RFU of the first 10 seconds was used as a baseline of the AUC. EC50 values of the dose-response curves were further used to plot Schild curves, and the curves were analyzed with linear regression analysis. For the mice von Frey test, mechanical thresholds were analyzed with two-way ANOVA followed by a Bonferonni test for multiple comparison analysis. For the zebrafish behavior test, the data from the first five seconds following drug administration were excluded, as zebrafish displacement during that period was highly influenced by liquid dispensing. AUC of all curves were measured and analyzed by one-way ANOVA. The post-hoc analysis was conducted with the Tukey’s or Dunnett’s multiple comparisons unless it stated otherwise. […] For our time-course average displacement graph, we used 2nd degree polynomial smoothing for a better representation; however, we used data before smoothing for all statistical analysis and quantification. All in vitro and in vivo data were evaluated using GraphPad Prism 7 (GraphPad Software, La Jolla, CA) unless it stated otherwise.

Row | Structure (SMILES) | EC50 [µM] | calcium influx by antagonist alone (316 µM, zTRPA1b-transfected cells) | pA2 expressed in µM (Schild plot against ASP7663-mediated calcium influx, zTRPA1b) [µM] | pA2 (Schild plot against ASP7663-mediated calcium influx, zTRPA1b, only two antagonist doses) | Schild slope (zTRPA1b, n = 2)
1 | CC(C)CN1C(=O)/C(=C/C(=O)O)c2cccc(F)c21 [ASP7663] | 99 | – | – | – | –
2 | CC(C)c1ccc(NC(=O)Cn2cnc3c2c(=O)n(C)c(=O)n3C)cc1 [HC-030031] | – | could produce an influx of intracellular calcium | 27.1 | 4.6 ± 0.3 | 0.83 ± 0.05
3 | C=CCN=C=S [AITC, allyl isothiocyanate] | 35.4 | – | – | – | –
